Experimental data from the NIST ThermoML archive (doi:10.1021/acs.jced.6b00361).
Numbers after ± are expanded uncertainties.

What was measured:
[1] = Crystal; DTA
[2] = Molar enthalpy of transition or fusion; settings: Crystal; DSC

## O=C(O)C=Cc1ccc(O)cc1 [3-(4-hydroxyphenyl)-2-propenoic acid]
[1]
  Normal melting temperature: 221.2 ± 0.5 °C
[2]
  Molar enthalpy of transition or fusion: 8.2 ± 0.239 kcal/mol
